Results as given in patent publication US10265297B2 (Council of Scientific & Industrial Research, priority 2016, dated 2019).
Marks after values point to notes of the source that are not given here.

Assays:
[1] = test system: ovariectomized Sprague Dawley rats; test: Ovariectomized (OVx) rats: trabecular microarchitecture of femur and uterine weight; type: in vivo; settings: for BV/TV / Po (tot) (Total porosity percent) / SMI / Tb.No / Tb.Pf (Trabecular pattern factor) / Tb.Sp: femur epiphysis
Description: The study was conducted in accordance with current legislation on animal experiments [Institutional Animal Ethical Committee (IAEC)] at C.D.R.I. […] Sprague Dawley rats weighing ˜180-200 gm were either bilaterally ovariectomized (OVx) or exposed to a sham surgical procedure. All rats were individually housed at 21° C., in 12-h light:12-h dark cycles. All rats had excess to normal chow diet and water ad libitum. After OVx, the rats were left for 12 weeks to develop osteopenia. After 12 weeks, extract treatment in the form of gavage (50.0 mg and 100 mg/kg body weight), and iPTH 30 μg·kg^−1 three times a week was given daily. Equal numbers of OVx and sham operated rats served as the control, and were given vehicle (20% ethanol). The rats were weighed each week. At the end of 12 weeks, urine was to be collected for biochemical assessment therefore the rats were caged individually in plastic cages fitted with steel mesh for a total period of 48 h preceding autopsy and had free access to normal chow diet and water for the first 24 h initially for of acclimatization and then during the next 24 h, animals received only water ad libitum. After twenty-four hours of fasting urine samples were collected in fresh containers, centrifuged at 2000 rpm at room temperature and stored at […] until analyzed. Rats were then euthanized. At autopsy, blood samples were collected by cardiac puncture in tubes. Uteri were carefully excised, gently blotted, weighed, and fixed for histology and histomorphometry. About 5 mm pieces from the middle segment of each uterus were dehydrated in ascending grades of ethanol, cleared in xylene, and embedded in paraffin wax using standard procedures. Photomicrographs of sections were obtained using a Leica DC 300 camera and Leica IM50 Image Acquisition software fitted to a Leica DMLB microscope. Histomorphometric measurements were done using Leica Qwin-Semiautomatic image Analysis software. μCT (both 2-D and 3-D) determination of excised bones was carried out using the Sky Scan 1076 μCT scanner (Aartselaar, Belgium) using the cone-beam reconstruction software version 2.6 based on the Feldkamp algorithm (Skyscan).
Trabecular response to FSE treatment of OVx rats was quantified at the femur epiphysis. […] Efficacy of OVx was confirmed by studying uterine weight. […] OVx group had reduced uterine weight as compared with the ovary intact, sham group. […] E2 increased uterine weight in OVx rats equal to the sham group.

[2] = Oral pharmacokinetics in male Sprague Dawley rats; type: in vivo; settings: rat, serum, 250 mg/kg; for Vd/F: read-out: Vss/F
calvarial osteoblasts = test: Mineralization (Alizarin Red-S) in calvarial osteoblasts; type: cell-based; settings: various concentration, 18 days, compared to untreated cells
Description: FIG. 5A-5C: Activity of the compound C003/K008 isolated from the extract was assessed by measuring ALP activity in calvarial osteoblast cells. At the end of the experiment, ALP activity was measured colorimetrically. […] (*p<0.05, **p<0.01 and ***p<0.001 when compared with control). Calvarial osteoblasts were treated with compound C003/K008 at various concentration for 18 days to induce mineralization. […] Values are expressed as mean±SEM. ***p<0.001 and *p<0.05 when compared with control (untreated cells).
Compound (2492/K008) was isolated from butanolic fraction and alkaline phosphatase activity and mineralization in calvarial osteoblast cells assessed with different concentrations of the test compound or vehicle for 48 hrs in growth medium supplemented with 10 mM β-glycerophosphate and 50 μg/ml ascorbic acid. At the end of incubation period, cells were washed with PBS and kept in −80° C. for 30 min and then at 37° C. for 30 min. ALP activity was measured using p-nitrophenylphosphate (PNPP) as substrate and absorbance was read at 405 nm. SE increased the alkaline phosphatase activity from doses ranging from […] as compared to the control with ˜2.0 fold increase in the ALP activity at 1 μM.

[3] = test system: drill-hole injury in femur of adult female Sprague Dawley rats; test: Drill hole model for fracture healing (micro-CT, calcein labeling, qPCR); type: in vivo; settings: 30 μg/kg s.c. injection
Description: Drill-hole injury was created in the mid femur region 1 cm above the knee joint by inserting a drill hole of diameter 0.8 mm in the anterior portion of the diaphysis of the bilateral femurs. Treatment was started next day of injury and continued for 14 days. Each animal received intraperitoneal administration of fluorochrome calcein(20 mg/kg) 24 h before autopsy. After 14 days of treatment, animals were sacrificed and autopsied to collect their femurs for the measurement of bone micro-architectural parameters. Bones were embedded inacrylic material and […] sections were made using an Isomet BoneCutter (Buehler, Lake Bluff, Ill., USA) and photographs taken under confocal microscope LSM 510 Meta, Carl Zeiss, Maple Grove, Minn., USA) aided with appropriate filters. The intensity of calcein binding, was calculated using Carl Zeiss AM 4.2 image-analysis software.
(A) In vivo regeneration of bone to monitor local repair process was done using micro-CT after creation of the hole using on femur of 0.8 mm diameter. […] Modest mineralized calluses appeared at defect and intra-medulla region of treated groups. By day 14, extent of callus mineralization increased, in the intra-medulla region.
The model was made as described above and then treatment of extract and Formulated Spinacea Extraxt (FSE) was started at doses of 250 and 750 mg·kg^−1·day^−1 from the next day of injury and continued for 14 days. After 14 days of treatment as described above, animals were sacrificed and autopsied to collect their femurs for the measurement of bonemicro architectural parameters at the drill-hole site. Bones were embedded inacrylic material and […] sections were made using an Isomet BoneCutter (Buehler, Lake Bluff, Ill., USA) and photographs taken under confocal microscope LSM 510 Meta, Carl Zeiss, Maple Grove, Minn., USA) aided with appropriate filters. The intensity of calcein binding, which is an indicator of the amount of new mineral deposition, was calculated using Carl Zeiss AM 4.2 image-analysis software. […]

## C[C@]12CC[C@@H]3c4ccc(O)cc4CC[C@H]3[C@@H]1CC[C@@H]2O [Compound E2]
[1]; Ovx + E2 (0.1 mgkg^−1day^−1)
  Uteriewt: 329.63 ± 30.44 mg
  BV/TV: 15.97 ± 1.88 %
  Po (tot) (Total porosity percent): 85.24 ± 2.07%
  SMI: 1.67 ± 0.04
  Tb.No: 1.61 ± 0.23** mm^−1
  Tb.Pf (Trabecular pattern factor): 6.22 ± 0.72
  Tb.Sp: 0.76 ± 0.1 mm

## COc1c(-c2ccc(O)c(O)c2)oc2cc3c(c(O)c2c1=O)OCO3 [Compound K007, 5,3′,4′-trihydroxy-3-methoxy-6,7-methylenedioxy-flavone]
[2]
  AUC(0-t): 39 ng·h/mL
  CL/F: 213 mL/min/kg
  Cmax: 7.6 ng/mL
  MRT: 3.4 h
  Tmax: 2 h
  Vd/F: 43.3 L/kg

## COc1c(O)cc2oc(-c3ccc(O)c(O)c3)c(OC)c(=O)c2c1O [Compound K008, 5,7,3′,4′-tetrahydroxy-3,6-dimethoxy-flavone]
[2]
  AUC(0-t): 23.3 ng·h/mL
  CL/F: 23.3 mL/min/kg
  Cmax: 5 ng/mL
  MRT: 3.9 h
  Tmax: 2 h
  Vd/F: 5.6 L/kg
Calvarial osteoblasts
  formation of mineralized nodules (Alizarin Red-S): increased formation of mineralized nodules

## PTH: parathyroid hormone, standard marketed anabolic drug, injectable
[3]
  BV/TV: 60.3 ± 1.91 %
  Calcein intensity: 15.3 ± .055 %
  SMI (Index): 0.65 ± 0.07
[1]; Ovx + PTH (30 μg/kg bw)
  Uteriewt: 91.18 ± 3.84 mg
  BV/TV: 22.78 ± 1.76 %
  Po (tot) (Total porosity percent): 76.79 ± 2.35 %
  SMI: 1.26 ± 0.18
  Tb.No: 2.43 ± 0.19*** mm^−1
  Tb.Pf (Trabecular pattern factor): 5.31 ± 0.68
  Tb.Sp: 0.63 ± 0.07 mm
